Laboratory results published in patent publication US11999737B2, “Kinase inhibitors and related methods of use” (Duke University, priority 2014, dated 2024).

Assays:
[1] = system: spontaneous hypertensive rat (SHR); assay: HS-38 treatment of spontaneous hypertensive rats, vessel properties; format: in vivo
Protocol: The myogenic response and ZIP-dependency of pressure autoregulation were assessed. Two age groups, 8-10 weeks and 18-20 weeks, were used to permit identification of age-dependent alterations in myogenic responses associated with the onset of diabetes/hypertension and after the diseases had become fully established. Two rat models were used, spontaneous hypertensive rat(SHR) model, and Goto-Kakizaki (GK) rat model of type 2 diabetes (T2D). […] HS-38 treatment attenuated myogenic hypercontractility in the cremaster artery of spontaneously-hypertensive rats (SHR; FIG. 33; WKY=Wistar Kyoto rat, control).
No effect of HS38 was observed on the ratio of wall thickness/vessel diameter in the SHR mesenteric artery.

[2] = system: posterior cerebral arteries of spontaneous hypertensive rat (SHR); assay: Pressure myography of posterior cerebral arteries of SHR, enhanced myogenic tone; conditions: HS-38 10 μM, 10-wk SHR
Source text: Data are means (n=2 animals) for size-matched vessels from 10-wk SHR rats. The average maximum passive diameters at 120 mmHg were 280 μm. Representative pressure-induced changes in arteriolar diameter (A) as well as mean diameter-pressure relationships (B) and active myogenic constriction (C) are shown.
Posterior cerebral arteries (PCAs) from male Sprague-Dawley rats were isolated and mounted/cannulated for pressure myography. Briefly, 2-3 mm arterial segments are mounted across glass canuli in an arteriograph chamber attached to a pressure myograph (Living Systems, Burlington, Vt. USA) and tied in place using silk suture. Endothelial cells are removed by passing a stream of air bubbles through the vessel lumen (this methodology was confirmed by loss of dilatory response to acetylcholine). […] After this, arteriole myogenic responses (i.e., vessel diameter) to increasing luminal pressure were monitored ex vivo in the absence or presence of HS-38. […] This series of steps is repeated in normal Krebs buffer, with the addition of ZIPK inhibitor (i.e., 10 μM HS-38) and finally in Ca^2+ free Krebs (same constitution as normal Krebs with no CaCl2 and added EGTA (2 mM), Data are collected as average vessel diameter over stable region of each step and expressed as a percentage of the maximal passive vessel diameter (120 mmHg, 0Ca^2+) to standardize for variation in size of […]. […]

Which circumferential strain ([1]; HS-38 treatment) does the source give for CC(Sc1nc2c(cnn2-c2cccc(Cl)c2)c(=O)[nH]1)C(N)=O (centres unmarked) [HS38] here?
Its circumferential strain is “increased”.

What about the “vessel narrowing seen in hypertension” value ([1]; HS-38 treatment) of the same molecule?
The value was “partially reversed”.

What about the “myogenic hypercontractility in the cremaster artery” value ([1]; HS-38 treatment, SHR) of the same molecule?
The value was “attenuated”.

What about the “ratio of wall thickness/vessel diameter” value ([1]; SHR mesenteric artery) of the same molecule?
Its value is “No effect”.

What about the “enhanced myogenic tone at low basal luminal pressures” value [2] of the same molecule?
Its value is “can be attenuated”.
